Measurements taken from patent publication US7368267B2, “Method for the oxidation of aromatic compounds” (BASF Aktiengesellschaft, priority 2001, dated 2008).
Read-outs that look alike come from different tables or passages of the source.

Assays:
[1] = Partition coefficients in DOP/M9 (glucose) biphasic system; type: physicochemical
[2] = tested on: E. coli; assay: Toxic / inhibitory effect of substrate, products and organic phase on biomass growth of the cells; details: in the aqueous phase
[3] = tested on: E. coli
[4] = tested on: E coli; details: at a pH of 7; cited from earlier work
[5] = concentration in organic phase (dioctyl phthalate) relative to aqueous phase (M9 medium, glucose), triplicate

Row | Compound | Partition coefficient [1, 5] | concentration which inhibits biomass growth [2] [µM] | further results
1 | Cc1ccc(C=O)cc1C [3,4-Dimethylbenzaldehyde, 3,4-dimethylbenzaldehyde] | 906 ± 20 | 1.812e+06 | 
2 | Cc1ccc(C(=O)O)cc1C [3,4-Dimethylbenzoic acid, 3,4-dimethylbenzoic acid] |  |  | concentration which inhibits biomass growth [3]: 16000 µM; Partition coefficient [1]: 0.188 ± 0.005
3 | Cc1ccc(CO)cc1C [3,4-Dimethylbenzyl alcohol, 3,4-dimethylbenzyl alcohol] | 50 ± 3 | 100000 | concentration above which it has a toxic effect on the cells [2]: > 100000 µM
4 | CC(=O)O [acetic acid] |  |  | concentration with inhibitory effect on cell growth [4]: 5000 µg/mL
5 | pseudocumene (trimethylbenzene) | 24300 ± 1500 |  | concentration above which it is toxic to the cells [2]: 15-25%
